Test results as given in patent US20260022142A1, “MACROCYCLIC IMMUNOMODULATORS” (Bristol-Myers Squibb Company, priority 2022, published 2026).
Bridge positions count the residues as written; N and C are the ends. Square brackets hold non-standard residues; d marks the D form. Peptide text beside a SMILES is read from it. * marks the point of attachment. ξ: configuration not given here. Phe(4-CONH2) = NC(=O)c1ccc(C[C@H](N)C(=O)O)cc1; Bip = N[C@@H](Cc1ccc(-c2ccccc2)cc1)C(=O)O; Phe(3-Me) = Cc1cccc(C[C@H](N)C(=O)O)c1; Phe(4-F) = N[C@@H](Cc1ccc(F)cc1)C(=O)O; Val(3-OH) = CC(C)(O)[C@H](N)C(=O)O; 4Pal = N[C@@H](Cc1ccncc1)C(=O)O; Cha = N[C@@H](CC1CCCCC1)C(=O)O; Thr(3ξ) = CC(O)[C@H](N)C(=O)O; Carboxymethyl = O=C(O)C*; Orn = NCCC[C@H](N)C(=O)O; Aun = NCCCCCCCCCCC(=O)O; Dab = NCC[C@H](N)C(=O)O; AEEA = NCCOCCOCC(=O)O

Molecular target: T1, PD-1/PD-L1 interaction (PE-labeled human PD-L1-Ig binding to Jurkat cell line over-expressing human PD-1) (Homo sapiens, UniProt Q15116)
T1 construct: expressed in transfected cells; host or cells: Jurkat
Test: Jurkat-PD-1 Cell Binding High-Content Screening Assay (CBA)
Assay type: cell-based
Conditions: Jurkat cell line over-expressing human PD-1; PE-labeled PD-L1-Ig 20 nM final; read-out: Jurkat hPD1-PDL1 IC50
Procedure, shortened: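 Jurkat-hPD-1 cells, DMEM/10% FCS; cpd 2 h 37° C; PE-PD-L1-Ig 20 nM final, 1 h; 4% PFA fix + Hoechst 33342, 3× dPBS wash; high-content imaging read-out.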

T1 sequence (Q15116 25-288): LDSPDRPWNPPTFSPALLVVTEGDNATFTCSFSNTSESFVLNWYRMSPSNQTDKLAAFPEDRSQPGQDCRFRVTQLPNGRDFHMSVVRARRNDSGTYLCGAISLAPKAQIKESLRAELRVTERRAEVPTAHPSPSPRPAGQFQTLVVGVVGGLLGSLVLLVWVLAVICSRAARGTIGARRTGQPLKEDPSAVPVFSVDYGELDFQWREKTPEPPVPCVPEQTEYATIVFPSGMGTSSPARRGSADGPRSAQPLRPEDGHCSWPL

Row | Structure (SMILES) | IC50
1 | Cc1cccc(C[C@@H]2NC(=O)[C@H](CC(=O)O)NC(=O)[C@H](Cc3ccc(OCC(=O)O)cc3)NC(=O)[C@H](C(C)O)NC(=O)CSC[C@@H](C(=O)N[C@@H](CO)C(=O)NCCCCCCCCCCC(=O)O)NC(=O)[C@H](CO)NC(=O)[C@H](C(C)(C)O)NC(=O)[C@H](CC3CCCCC3)NC(=O)[C@H](Cc3cnc[nH]3)NC(=O)[C@@H](CC(C)C)NC(=O)[C@H](CCCN)NC(=O)[C@H](Cc3ccc(OCC(=O)O)cc3)NC(=O)[C@H](Cc3ccc(-c4ccccc4)cc3)NC(=O)[C@H](Cc3ccc(OCC(=O)O)cc3)NC2=O)c1 (stereo partly drawn) [Compound 3723] ({CH2CO}-[Thr(3ξ)]Y(Carboxymethyl)D[Phe(3-Me)]Y(Carboxymethyl)[Bip]Y(Carboxymethyl)[Orn][dL]H[Cha][Val(3-OH)]SCS[Aun]-OH; thioether N-14) | 84.1 nM
2 | Cc1cccc(C[C@@H]2NC(=O)[C@H](CC(=O)O)NC(=O)[C@H](Cc3ccc(OCC(=O)O)cc3)NC(=O)[C@H](CCN)NC(=O)CSC[C@@H](C(=O)N[C@@H](CO)C(=O)NCCCCCCCCCCC(=O)O)NC(=O)[C@H](CO)NC(=O)[C@H](C(C)(C)O)NC(=O)[C@H](CC3CCCCC3)NC(=O)[C@H](Cc3cnc[nH]3)NC(=O)[C@@H](CC(C)C)NC(=O)[C@H](CCCN)NC(=O)[C@H](Cc3ccc(OCC(=O)O)cc3)NC(=O)[C@H](Cc3ccc(-c4ccccc4)cc3)NC(=O)[C@H](Cc3ccc(OCC(=O)O)cc3)NC2=O)c1 [Compound 3724] ({CH2CO}-[Dab]Y(Carboxymethyl)D[Phe(3-Me)]Y(Carboxymethyl)[Bip]Y(Carboxymethyl)[Orn][dL]H[Cha][Val(3-OH)]SCS[Aun]-OH; thioether N-14) | 73.9 nM
3 | Cc1cccc(C[C@@H]2NC(=O)[C@H](CC(=O)O)NC(=O)[C@H](Cc3ccc(OCC(=O)O)cc3)NC(=O)[C@H](CCN)NC(=O)CSC[C@@H](C(=O)N[C@@H](CO)C(=O)NCCCCCCCCCCC(=O)O)NC(=O)[C@H](C(C)O)NC(=O)[C@H](C(C)(C)O)NC(=O)[C@H](CC3CCCCC3)NC(=O)[C@H](CCN)NC(=O)[C@@H](CC(C)C)NC(=O)[C@H](CCCN)NC(=O)[C@H](Cc3ccc(O)cc3)NC(=O)[C@H](Cc3ccc(-c4ccccc4)cc3)NC(=O)[C@H](Cc3ccc(C(N)=O)cc3)NC2=O)c1 (stereo partly drawn) [Compound 3725] ({CH2CO}-[Dab]Y(Carboxymethyl)D[Phe(3-Me)][Phe(4-CONH2)][Bip]Y[Orn][dL][Dab][Cha][Val(3-OH)][Thr(3ξ)]CS[Aun]-OH; thioether N-14) | 30.5 nM
4 | Cc1cccc(C[C@@H]2NC(=O)[C@H](CC(=O)O)NC(=O)[C@H](Cc3ccc(OCC(=O)O)cc3)NC(=O)[C@H](Cc3ccncc3)NC(=O)CSC[C@@H](C(=O)N[C@@H](CO)C(=O)NCCCCCCCCCCC(=O)O)NC(=O)[C@H](C(C)O)NC(=O)[C@H](C(C)(C)O)NC(=O)[C@H](CC3CCCCC3)NC(=O)[C@H](CCN)NC(=O)[C@@H](CC(C)C)NC(=O)[C@H](CCCN)NC(=O)[C@H](Cc3ccc(O)cc3)NC(=O)[C@H](Cc3ccc(-c4ccccc4)cc3)NC(=O)[C@H](Cc3ccc(C(N)=O)cc3)NC2=O)c1 (stereo partly drawn) [Compound 3726] ({CH2CO}-[4Pal]Y(Carboxymethyl)D[Phe(3-Me)][Phe(4-CONH2)][Bip]Y[Orn][dL][Dab][Cha][Val(3-OH)][Thr(3ξ)]CS[Aun]-OH; thioether N-14) | 13.1 nM
5 | Cc1cccc(C[C@@H]2NC(=O)[C@H](CC(=O)O)NC(=O)[C@H](Cc3ccc(OCC(=O)O)cc3)NC(=O)[C@H](CCN)NC(=O)CSC[C@@H](C(=O)NCCOCCOCC(=O)NCCCCCCCCCCC(=O)O)NC(=O)[C@H](C(C)O)NC(=O)[C@H](C(C)(C)O)NC(=O)[C@H](CC3CCCCC3)NC(=O)[C@H](CCN)NC(=O)[C@@H](CC(C)C)NC(=O)[C@H](CCCN)NC(=O)[C@H](Cc3ccc(O)cc3)NC(=O)[C@H](Cc3ccc(-c4ccccc4)cc3)NC(=O)[C@H](Cc3ccc(C(N)=O)cc3)NC2=O)c1 (stereo partly drawn) [Compound 3727] ({CH2CO}-[Dab]Y(Carboxymethyl)D[Phe(3-Me)][Phe(4-CONH2)][Bip]Y[Orn][dL][Dab][Cha][Val(3-OH)][Thr(3ξ)]C[AEEA][Aun]-OH; thioether N-14) | 50.4 nM
6 | Cc1cccc(C[C@@H]2NC(=O)[C@H](CC(=O)O)NC(=O)[C@H](Cc3ccc(OCC(=O)O)cc3)NC(=O)[C@H](Cc3ccncc3)NC(=O)CSC[C@@H](C(=O)N[C@@H](CCN)C(=O)NCCCCCCCCCCC(=O)O)NC(=O)[C@H](C(C)O)NC(=O)[C@H](C(C)(C)O)NC(=O)[C@H](CC3CCCCC3)NC(=O)[C@H](Cc3cnc[nH]3)NC(=O)[C@@H](CC(C)C)NC(=O)[C@H](CCCN)NC(=O)[C@H](Cc3ccc(O)cc3)NC(=O)[C@H](Cc3ccc(-c4ccccc4)cc3)NC(=O)[C@H](Cc3ccc(C(N)=O)cc3)NC2=O)c1 (stereo partly drawn) [Compound 3728] ({CH2CO}-[4Pal]Y(Carboxymethyl)D[Phe(3-Me)][Phe(4-CONH2)][Bip]Y[Orn][dL]H[Cha][Val(3-OH)][Thr(3ξ)]C[Dab][Aun]-OH; thioether N-14) | 25.6 nM
7 | Cc1cccc(C[C@@H]2NC(=O)[C@H](CC(=O)O)NC(=O)[C@H](Cc3ccc(OCC(=O)O)cc3)NC(=O)[C@H](C(C)O)NC(=O)CSC[C@@H](C(=O)N[C@@H](CCN)C(=O)NCCCCCCCCCCC(=O)O)NC(=O)[C@H](C(C)O)NC(=O)[C@H](C(C)(C)O)NC(=O)[C@H](CC3CCCCC3)NC(=O)[C@H](Cc3cnc[nH]3)NC(=O)[C@@H](CC(C)C)NC(=O)[C@H](CCCN)NC(=O)[C@H](Cc3ccc(O)cc3)NC(=O)[C@H](Cc3ccc(-c4ccccc4)cc3)NC(=O)[C@H](Cc3ccc(C(N)=O)cc3)NC2=O)c1 (stereo partly drawn) [Compound 3729] ({CH2CO}-[Thr(3ξ)]Y(Carboxymethyl)D[Phe(3-Me)][Phe(4-CONH2)][Bip]Y[Orn][dL]H[Cha][Val(3-OH)][Thr(3ξ)]C[Dab][Aun]-OH; thioether N-14) | 30.3 nM
8 | Cc1cccc(C[C@@H]2NC(=O)[C@H](CC(=O)O)NC(=O)[C@H](Cc3ccc(OCC(=O)O)cc3)NC(=O)[C@H](Cc3ccncc3)NC(=O)CSC[C@@H](C(=O)NCCOCCOCC(=O)NCCCCCCCCCCC(=O)O)NC(=O)[C@H](C(C)O)NC(=O)[C@H](C(C)(C)O)NC(=O)[C@H](CC3CCCCC3)NC(=O)[C@H](CCN)NC(=O)[C@@H](CC(C)C)NC(=O)[C@H](CCCN)NC(=O)[C@H](Cc3ccc(O)cc3)NC(=O)[C@H](Cc3ccc(-c4ccccc4)cc3)NC(=O)[C@H](Cc3ccc(C(N)=O)cc3)NC2=O)c1 (stereo partly drawn) [Compound 3730] ({CH2CO}-[4Pal]Y(Carboxymethyl)D[Phe(3-Me)][Phe(4-CONH2)][Bip]Y[Orn][dL][Dab][Cha][Val(3-OH)][Thr(3ξ)]C[AEEA][Aun]-OH; thioether N-14) | 22.8 nM
9 | Cc1cccc(C[C@@H]2NC(=O)[C@H](CC(=O)O)NC(=O)[C@H](Cc3ccc(OCC(=O)O)cc3)NC(=O)[C@H](CCN)NC(=O)CSC[C@@H](C(=O)N[C@@H](CCN)C(=O)NCCCCCCCCCCC(=O)O)NC(=O)[C@H](CO)NC(=O)[C@H](C(C)(C)O)NC(=O)[C@H](CC3CCCCC3)NC(=O)[C@H](Cc3cnc[nH]3)NC(=O)[C@@H](CC(C)C)NC(=O)[C@H](CCCN)NC(=O)[C@H](Cc3ccc(OCC(=O)O)cc3)NC(=O)[C@H](Cc3ccc(-c4ccccc4)cc3)NC(=O)[C@H](Cc3ccc(F)cc3)NC2=O)c1 [Compound 3731] ({CH2CO}-[Dab]Y(Carboxymethyl)D[Phe(3-Me)][Phe(4-F)][Bip]Y(Carboxymethyl)[Orn][dL]H[Cha][Val(3-OH)]SC[Dab][Aun]-OH; thioether N-14) | 16.9 nM
